# From patent US4758559A, “Pyrrolo[1,2-a] [4,1]benzoxazepine derivatives useful as calmodulin and histamine inhibitors” (Ciba-Geigy Corporation, priority 1986, dated 1988)
# Columns and labels:
# calmodulin = calmodulin (Bos taurus, UniProt P62157); test: inhibition of the calmodulin induced activation of bovine c-AMP phosphodiesterase; type: biochemical; conditions: in vitro; read-out: concentration inhibiting calmodulin-induced activation of phosphodiesterase by 50%
# Experimental: The calmodulin inhibitory properties indicative of the antisecretory activity of said new compounds are determined in vitro by measuring the inhibition of the calmodulin induced activation of bovine c-AMP phosphodiesterase, according to the method described by J. A. Norman et al, Mol. Pharmacology 16, 1089 (1979).
# [1] = system: diarrhea induced in rats by prostaglandin E2; test: inhibition of the diarrhea induced in rats by intraperitoneal prostaglandin E2; type: in vivo; conditions: 10 mg/Kg p.o. in the rat
# Experimental: The antidiarrheal effect of the compounds of the invention is determined by measuring the inhibition of the diarrhea induced in rats by the intraperitoneal administration of prostaglandin E2.
# The test is carried out as follows:
# Female Sprague-Dawley rats weighing 200-250 g and fasted for 18 hours are employed. The test compounds are dissolved in dimethylsulfoxide diluted with water to a 30-50% dimethyl sulfoxide concentration and administered orally by gastric lavage in a volume of 1 ml/Kg. Thirty or sixty minutes later, prostaglandin E2 (150 μg) is administered i.p. in a volume of 0.5 ml of water. The decrease in fecal excretion compared to untreated animals is measured for a period of 30 minutes after administration of prostaglandin E2.
# [2] = system: rat stomach parietal cells; test: inhibition of acid secretion in rat stomach parietal cells (14C-aminopyrine accumulation); type: cell-based; conditions: histamine (1 mM) and isobutyl methylxanthine (0.1 mM)
# Experimental: Inhibition of acid secretion, indicative of antiulcer activity, can be determined in vitro in rat stomach parietal cells as follows:
# Approximately 1×10^6 parietal cells (18-22% enriched) are incubated in a balanced salt solution containing glucose, BSA (bovine serum albumin), 0.1 uCi of ^14 C-aminopyrine, histamine (1 mM), isobutyl methylxanthine (0.1 mM) and the compound to be tested under 95% oxygen at 37° C. for a period of 40 minutes. The cells are then washed, ruptured with distilled water and analyzed by scintillation spectrometry. A decrease in the accumulation of ^14 C-aminopyrine in the cells represents an indirect measure of the inhibition of acid secretion.
structure (smiles),measurement,setting,value
"CC1(CN2CCC(n3c(=O)[nH]c4ccccc43)CC2)OCc2ccccc2-n2cccc21 (stereo not drawn) [Example 1, 1,3-Dihydro-1-{1-[(4-methyl-4H,6H,-pyrrolo[1,2-a][4,1]-benzoxazepin-4-yl)-methyl]-4-piperidinyl}-2H-benzimidazol-2-one (1:1)maleate]",IC50,calmodulin,~3000 nM
same,prostaglandin E2 induced fecal excretion,[1],reduces prostaglandin E2 induced fecal excretion
same,IC50,[2],~300 nM
